From PubChem BioAssay (NCI)
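Cultured in 96-well plates, cells were exposed to test compound for 48 hours across five concentrations. TGI marks complete inhibition of growth.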

Columns and labels:
Assay in all cases: NCI tumour cell line growth inhibition, 48 h
[1] = tested on: 786-0 renal
[2] = tested on: A498 renal
[3] = tested on: A549 NSCLC
[4] = tested on: ACHN renal
[5] = tested on: BT-549 breast
[6] = tested on: CAKI-1 renal
[7] = tested on: CCRF-CEM leukemia
[8] = tested on: COLO 205 colon
[9] = tested on: DU-145 prostate
[10] = tested on: EKVX NSCLC
[11] = tested on: HCC-2998 colon
[12] = tested on: HCT-116 colon
[13] = tested on: HCT-15 colon
[14] = tested on: HOP-62 NSCLC
[15] = tested on: HOP-92 NSCLC
[16] = tested on: KM12 colon
[17] = tested on: LOX IMVI melanoma
[18] = tested on: M14 melanoma
[19] = tested on: MCF7 breast
[20] = tested on: MDA-MB-231 breast
[21] = tested on: MDA-MB-435
[22] = tested on: NCI-H23 lung
[23] = tested on: NCI-H460 lung
[24] = tested on: NCI/ADR-RES ovarian
[25] = tested on: OVCAR-3 ovarian
[26] = tested on: OVCAR-4 ovarian
[27] = tested on: OVCAR-5 ovarian
[28] = tested on: OVCAR-8 ovarian
[29] = tested on: PC-3 prostate
[30] = tested on: RPMI-8226 leukemia
[31] = tested on: RXF 393 renal
[32] = tested on: SF-268 CNS
[33] = tested on: SF-295 CNS
[34] = tested on: SK-MEL-2 melanoma
[35] = tested on: SK-MEL-28 melanoma
[36] = tested on: SK-MEL-5 melanoma
[37] = tested on: SK-OV-3 ovarian
[38] = tested on: SNB-19 CNS
[39] = tested on: SNB-75 CNS
[40] = tested on: SW-620 colon
[41] = tested on: T-47D breast
[42] = tested on: TK-10 renal
[43] = tested on: U251 CNS
[44] = tested on: UACC-257 melanoma
[45] = tested on: UACC-62 melanoma
[46] = tested on: UO-31 renal
[47] = tested on: K-562 leukemia
[48] = tested on: MOLT-4 leukemia
[49] = tested on: NCI-H226 lung

Measured: TGI

Cc1cc(C)c(C#N)c(SC(=S)NC(=O)c2ccc(Cl)cc2)n1
not listed: [47] | [48] | [49]
> 100 µM: all other assays above

Cc1ccc(C2c3c(n(C)c(=O)n(C)c3=O)OC(N(C)C)(N(C)C)C2(F)F)cc1 (centres undefined)
not listed: [28]
> 100 µM: all other assays above
